Results taken from PMC9581421, “Functional analysis of a bitter gustatory receptor highly expressed in the larval maxillary galea of Helicoverpa armigera” (PLoS Genetics, 2022).

Target: T1, Gr180 (Helicoverpa armigera, UniProt Z9OE30KH69)
T1 construct: wild type 411 residues (239 + 172 as printed); seven TM domains predicted
T1 sequence (Z9OE30KH69 1-411): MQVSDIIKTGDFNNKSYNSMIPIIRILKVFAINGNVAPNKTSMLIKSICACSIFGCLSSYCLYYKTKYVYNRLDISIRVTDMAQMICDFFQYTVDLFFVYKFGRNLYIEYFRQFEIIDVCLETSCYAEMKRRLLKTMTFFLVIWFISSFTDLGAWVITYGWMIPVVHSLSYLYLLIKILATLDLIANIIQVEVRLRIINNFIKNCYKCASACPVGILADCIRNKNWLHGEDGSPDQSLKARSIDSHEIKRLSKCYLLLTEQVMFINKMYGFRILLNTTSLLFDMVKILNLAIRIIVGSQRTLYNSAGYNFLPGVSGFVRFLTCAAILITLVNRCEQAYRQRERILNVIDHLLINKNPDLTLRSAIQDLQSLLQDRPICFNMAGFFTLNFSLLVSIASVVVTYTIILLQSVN
Assay: two-electrode voltage clamp, Xenopus oocytes
Assay type: cell-based
Details: 10^-2 M coumarin in Ringer solution; holding potential -80 mV; Gr180 expressed alone; agonist

- average current at 10^-2 M: 241 nA
SMILES: O=c1ccc2ccccc2o1 [coumarin]
